The source of these data is PubChem BioAssay (NCI).

Test systems include EKVX NSCLC; MDA-MB-435; K-562 leukemia; PC-3 prostate; UO-31 renal; MOLT-4 leukemia; CAKI-1 renal; A549 NSCLC; MCF7 breast; CCRF-CEM leukemia.
Assay in all cases: NCI tumour cell line growth inhibition, 48 h

Values joined by “and” are separate entries in the source; they are usually repeats but may differ in a detail not shown here. Equal values may be shown once.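 Protocol summary: plate cells (96-well), add compound at 5 concentrations, incubate 48 h, interpolate endpoints linearly. TGI marks complete inhibition of growth.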

Turning to `CC(C)(C)OC(=O)NCC(=O)N1CCCN(C(=O)CNC(=O)OC(C)(C)C)CC1`, the TGI in the experiment on EKVX NSCLC, in the experiment with MDA-MB-435, in the experiment on K-562 leukemia, in the experiment with PC-3 prostate, in the experiment on UO-31 renal and with MOLT-4 leukemia was above 100 µM each time. In addition, the TGI in the experiment with CAKI-1 renal, in the experiment with A549 NSCLC and in the experiment on MCF7 breast was above 100 µM throughout.
For the molecule `O=C1C[C@H](c2ccccc2)C2(C(=O)c3ccccc3C2=O)[C@H](c2ccccc2)C1`, the TGI in the experiment on CCRF-CEM leukemia, in the experiment on MDA-MB-435, in the experiment on K-562 leukemia, in the experiment on PC-3 prostate, in the experiment with UO-31 renal and in the experiment with MOLT-4 leukemia was above 100 µM in each case. For the same molecule, the TGI in the experiment on CAKI-1 renal is above 100 µM.
Turning to `CN1CCCCC(C(O)(c2ccccc2)c2ccccc2)C1=O` (configuration not stated), the TGI in the experiment on CCRF-CEM leukemia, with EKVX NSCLC, in the experiment on K-562 leukemia, in the experiment with UO-31 renal, in the experiment with MOLT-4 leukemia and with A549 NSCLC was above 100 µM throughout.
Turning to `O=C(C#Cc1cn(C2CC(O)C(CO)O2)c(=O)[nH]c1=O)c1ccccc1` (configuration not stated), the TGI in the experiment with EKVX NSCLC, in the experiment on MDA-MB-435, with PC-3 prostate, with UO-31 renal, in the experiment on CAKI-1 renal and in the experiment on A549 NSCLC was above 100 µM in each case. Moreover, in the experiment on MCF7 breast, the TGI was above 100 µM.
In the case of `CN(c1ccccc1Cl)S(=O)(=O)c1ccccc1[N+](=O)[O-]`, the TGI in the experiment with CCRF-CEM leukemia, in the experiment with EKVX NSCLC, in the experiment with MDA-MB-435, in the experiment with K-562 leukemia, in the experiment on PC-3 prostate and in the experiment with UO-31 renal was above 100 µM throughout. For the same molecule, the TGI in the experiment on MOLT-4 leukemia, in the experiment on CAKI-1 renal and in the experiment on A549 NSCLC was above 100 µM throughout.
As to `Clc1ncnc2c1ncn2CCCCCCCCCCCCn1cnc2c(Cl)ncnc21`, the TGI was above 100 µM in the experiment with CCRF-CEM leukemia; 33 µM in the experiment on EKVX NSCLC; 17.4 µM in the experiment with K-562 leukemia; 25.8 µM in the experiment with UO-31 renal; 42.9 µM with MOLT-4 leukemia; 7.68 µM with CAKI-1 renal. Further, the TGI in the experiment with A549 NSCLC is 26.4 µM.
Regarding `c1ccc(C2=C(c3ccccc3)P(c3ccccc3)C2)cc1` (configuration not stated), the TGI with CCRF-CEM leukemia, with MDA-MB-435, with PC-3 prostate, in the experiment with MOLT-4 leukemia, in the experiment with CAKI-1 renal and in the experiment with A549 NSCLC was above 100 µM in each case. Further, the TGI with MCF7 breast was above 100 µM.
As for `O=C(c1ccccc1)N1C(=S)N(c2ccc([N+](=O)[O-])cc2)C(=Nc2ccccc2)C1=Nc1ccccc1`, the TGI in the experiment on EKVX NSCLC, in the experiment on MDA-MB-435, in the experiment on K-562 leukemia, in the experiment on PC-3 prostate, in the experiment with UO-31 renal and in the experiment on MOLT-4 leukemia was above 100 µM each time. The TGI in the experiment with CAKI-1 renal, in the experiment on A549 NSCLC and in the experiment with MCF7 breast was above 100 µM in each case.
On to `COC1/C=C/C(C)C(C(C)C(OC)C(C)CCC(=O)C(C)C(C/C=C/N(C)C=O)OC)OC(=O)/C=C/C=C(\C)CC(OC)C(OC)C2=CC(=O)O[C@@H](C(C)C(OC)CC(OC)/C=C/C(C)C(O)C1)[C@H]2O` (some centres not stated), for which the TGI in the experiment with EKVX NSCLC was 0.441 µM; in the experiment with MDA-MB-435 it was 0.977 µM; in the experiment on K-562 leukemia it was above 100 µM; in the experiment with PC-3 prostate, 0.35 µM; in the experiment on UO-31 renal, 0.267 µM; in the experiment with MOLT-4 leukemia it was above 100 µM. Further, the TGI in the experiment with A549 NSCLC is 0.781 µM; with MCF7 breast it was 0.977 µM.
With `COc1ccc2c(c1)CC[C@@H]1[C@@H]2CC[C@]2(C)C(=O)/C(=C/c3cc(OC)c(OC)c(OC)c3)C[C@@H]12`, the TGI in the experiment with EKVX NSCLC is above 100 µM; in the experiment on MDA-MB-435, above 100 µM; in the experiment with PC-3 prostate, 26.9 µM; in the experiment on UO-31 renal, above 100 µM; in the experiment with MOLT-4 leukemia, above 100 µM; in the experiment on CAKI-1 renal, 63.3 µM. For the same molecule, the TGI in the experiment on A549 NSCLC and in the experiment on MCF7 breast was above 100 µM in each case.
Regarding `CC1CCC2(CC1)N=C1CCC(C)CC1C1(CCC(C)CC1)N2` (configuration not stated), the TGI is above 100 µM in the experiment on CCRF-CEM leukemia; above 100 µM in the experiment with MDA-MB-435; above 100 µM in the experiment on K-562 leukemia; above 100 µM with PC-3 prostate; above 100 µM with UO-31 renal; 95.3 µM with MOLT-4 leukemia. In addition, the TGI with CAKI-1 renal, with A549 NSCLC and in the experiment on MCF7 breast was above 100 µM throughout.
As for `COc1ccc(C2=CN3CCC[C@H]3C=C2c2cc(O)c(OC)c(OC)c2)cc1OC`, the TGI with CCRF-CEM leukemia is 0.235 µM; in the experiment on EKVX NSCLC it was 0.228 µM and 1.82 µM; in the experiment on MDA-MB-435 it was 0.0165 µM; in the experiment on K-562 leukemia, 0.244 µM and 0.173 µM; with PC-3 prostate, 0.0538 µM; in the experiment on UO-31 renal, 0.0905 µM and 0.0233 µM. In addition, the TGI in the experiment with MOLT-4 leukemia was 0.183 µM and 0.393 µM; with CAKI-1 renal, 0.0522 µM; with A549 NSCLC, 0.274 µM and 0.172 µM.
On to `C/C=C\C(CC(=O)NCCC1CN(C(=O)c2ccccc2)c2ccccc21)CC(=O)OC` (configuration not stated), for which the TGI with EKVX NSCLC, with MDA-MB-435, with K-562 leukemia, in the experiment on PC-3 prostate, in the experiment with UO-31 renal and in the experiment on MOLT-4 leukemia was above 100 µM each time. Besides, the TGI with CAKI-1 renal, in the experiment with A549 NSCLC and with MCF7 breast was above 100 µM in each case.
Regarding `O=C1O[C@]2(c3ccccc3)C(c3ccccc3)=C[C@]2(C(=O)c2ccccc2)C1=O`, the TGI in the experiment with EKVX NSCLC is above 100 µM; in the experiment on MDA-MB-435, above 100 µM; in the experiment on K-562 leukemia, 54.3 µM; with PC-3 prostate it was above 100 µM; with UO-31 renal, 61.1 µM; in the experiment with MOLT-4 leukemia, 22.3 µM. Moreover, the TGI with CAKI-1 renal was above 100 µM; in the experiment on A549 NSCLC, above 100 µM; with MCF7 breast it was 81.8 µM.
In the case of `Cc1c(F)c(N)c2c(=O)cc(-c3ccc(NC(=O)C(N)CCCN=C(N)N)c(F)c3)oc2c1F` (configuration not stated), the TGI in the experiment with CCRF-CEM leukemia was above 100 µM; with EKVX NSCLC, above 100 µM; in the experiment with MDA-MB-435, above 83.6 µM; in the experiment with K-562 leukemia, above 100 µM; in the experiment with PC-3 prostate, above 76.6 µM; with UO-31 renal it was above 55.8 µM. Besides, the TGI in the experiment with MOLT-4 leukemia was above 100 µM; with CAKI-1 renal it was 3.32 µM; in the experiment on A549 NSCLC, above 100 µM.
